Data published in patent US10471118B2, “Retinylamine derivitives for treatment of ocular disorders” (CASE WESTERN RESERVE UNIVERSITY, priority 2014, dated 2019).
Entries after “also recorded” stand apart in the source; their conditions may differ.

Tests used:
[1] = system: Abca4^−/−Rdh8^−/− mice; assay: Light-induced retinal degeneration in Abca4-/-Rdh8-/- mice (OCT, ERG, histology), Example 1; assay type: in vivo, mouse; conditions: for protection against light-induced retinal degeneration (ONL thickness from OCT): 0.875 μmol per mouse oral gavage 16 h before 10,000 lux 1 h, OCT after 3 days in dark
Protocol: Abca4^−/−Rdh8^−/− double knockout mice were housed in the animal facility at the School of Medicine, Case Western Reserve University, where they were maintained under either complete darkness or a 12-h light (−10 1×) and 12-h dark cycle. All retinylamine tested were dissolved or suspended in 100 μl of vegetable oil with less than 10% (v/v) DMSO and were administered by oral gavage with a 22-gauge feeding needle. Experimental manipulations in the dark were done under dim red light transmitted through a Kodak No. 1 safelight filter (transmittance >560 nm). All animal procedures and experiments were approved by the Case Western Reserve University Animal Care Committees and conformed to recommendations of the American Veterinary Medical Association Panel on Euthanasia and the Association of Research for Vision and Ophthalmology.
After dark adaptation for 48 h, one or two Abca4^−/−Rdh8^−/− mice with pupils dilated by 1% tropicamide were exposed to fluorescent light (10,000 1×; 150-W spiral lamp, Commercial Electric) for 60 min in a white plastic bucket (Papersmith) with food and water and then kept in the dark. Histological and biochemical experiments were performed 3 days after exposure.
Ultra-high resolution spectral-domain OCT (SD-OCT; Bioptigen) and Heidelberg Retinal Angiograph II SLO (Heidelberg Engineering) were used for in vivo imaging of mouse retinas. Mice were anesthetized by intraperitoneal injection of a cocktail (20 μl g-1 body weight) containing ketamine (6 mg ml-1) and xylazine (0.44 mg ml-1) in 10 mM sodium phosphate, pH 7.2, and 100 mM NaCl. Pupils were dilated with 1% tropicamide. Four pictures acquired in the B-scan mode were used to construct each final averaged SD-OCT image.
All ERG procedures were performed by published methods. For single-flash recording, the duration of white-light flash stimuli (from 20 μs to 1 ms) was adjusted to provide a range of illumination intensities (from −3.7 to 1.6 log cd s m-2). Three to five recordings were made at sufficient intervals between flash stimuli (from 3 s to 1 min) to allow recovery from any photobleaching effects.
Mouse eyes were fixed for 24 h by rocking in a fixation solution (2 ml/eye) containing 4% paraformaldehyde and 1% glutaraldehyde in PBS. The tissue was processed through a series of ethanols, xylenes, and paraffins in a Tissue-Tek VIP automatic processor (Sakura, Torrance, Calif., USA), and 5-μm sections were cut using a Microm HM355 paraffin microtome (Thermo Fisher Scientific, Waltham, Mass., USA) and stained with hematoxylin and eosin (H&E) stain. Images of stained sections were captured by a Leica CTR6000 microscope attached to a CCD camera (Micropublisher 5.0 RTV, Qimaging Surray BC, Canada).
The effectiveness of the retinylamine derivatives on preventing light-induced retinal degeneration was tested in four-week old Abca4^−/−Rdh8^−/− mice according to the experimental scheme depicted in FIG. 1. After the mice were dark-adapted for 48 h, the drugs were gavaged at a dose 0.875 μmol/per mouse, which was selected based on the half protection dose for retinylamine after a dosing experiment, FIG. 2. Retinylamine was tested as a control at the same dose. […] Retinal integrity was assessed using optical coherence tomography (OCT). […] The mice without any treatment had photoreceptor cells completely destroyed after light illumination, and were used as a negative control. The retinal integrity was determined based on the thickness of outer nuclear layer (ONL) of the retinas measured from the OCT images. Reduced ONL thickness signifies the decreasing number of photoreceptors and retinal degeneration.

[2] = Biodistribution of N-retinylamides and retinylamine derivatives in liver and eye after oral gavage; assay type: in vivo, mouse; conditions: for original drug detected in the eye: 2 h and 16 h
Protocol: Female C57BL mice (4-week-old) were randomly divided into seven groups, six treated groups and one control group. Free Ret-NH2 (3.5 μmol per mouse, dissolved in DMSO and dispersed in vegetable oil) or retinylamine derivatives (Ret-Gly, Ret-L-Val-Gly, Ret-L-Phe, Ret-L-Leu, Ret-L-Val, 3.5 μmol per mouse, dissolved in DMSO and dispersed in vegetable oil) was administered by gastric gavage, control group was only gavaged vegetable oil. Then at each predetermined time point (2 and 16 h after drug administration), 3 mice were sacrificed. The liver and eye balls were collected to determine tissue N-retinylamide content for pharmacokinetic analysis. A portion of the liver tissue (0.3-0.5 g) was weighed, homogenized in 2 mL 1:1 ethanol:PBS solution and the eye balls were similarly processed (eye balls were combined for 3 mice). N-Retinylamides were extracted in 4 mL hexane, concentrated, and reconstituted to a 300 μL volume for liver (200 μL for eye). Normal-phase HPLC (Agilent-Zorbax SIL; 5 μm; 4.5×250 mm; flow rate of 1.4 mL/min; 80:20 hexane:ethyl acetate (v:v); detection at 325 nm) was utilized to determine N-retinylamide concentration in these tissues.
Female C57BL mice (4-week-old) were randomly divided into seven groups, six treated groups and one control group. Free Ret-NH2 (3.5 μmol per mouse, dissolved in DMSO and dispersed in vegetable oil) or retinylamine derivative (Ret-Gly, Ret-L-Val-Gly, Ret-L-Phe, Ret-L-Leu, Ret-L-Val, 3.5 μmol per mouse, dissolved in DMSO and dispersed in vegetable oil) was administered by gastric gavage, control group was only gavaged vegetable oil. Then at each predetermined time point (2 and 16 h after drug administration), 3 mice were sacrificed. The liver and eye balls were collected to determine tissue drug content for pharmacokinetic analysis. A portion of the liver tissue (0.3-0.5 g) was weighed, homogenized in 2 mL 1:1 ethanol:PBS solution and the eye balls were similarly processed. Retinylamine or its derivative was extracted in 4 mL ethyl acetate, concentrated, and reconstituted to a 300 μL volume for liver (200 μL for eye). Reverse-phase HPLC (analytical C18 reverse column; 5 μm; 250 mm×4.6 mm; flow rate of 1.0 mL/min; 60:40 acetonitrile:H2O (v:v) with 0.05% trifluoroacetic acid; detection at 325 nm) was utilized to determine retinylamine or its derivative in these tissues. […]
No N-retinylamides were detected in the eye at 2 h for all treated mice. The concentration of N-retinylamides in the liver of all treated mice increased at 16 h post-treatment. […] The concentrations of the original drugs were also determined in the liver and eye at 2 h and 16 h (FIGS. 7C, D). All tested drugs, including Ret-NH2, were detected in liver and their concentrations decreased from 2 h to 16 h.

[3] = Storage stability of RVG and Ret-NH2; assay type: physicochemical
Description: The synthesis was straightforward, and Ret-NH2 reacted with fluorenylmethyloxycarbonyl (Fmoc) protected amino acids or peptides in the presence of coupling agents. The Fmoc group then was removed using 20% piperidine in […] solution to give target molecules. The retinylamine derivatives were characterized by ^1H-NMR, ^13C-NMR and mass spectroscopy. The retinylamine derivatives had the purity over 95% as determined by HPLC except 3m Ret-Gly-Gly (RGG) with the purity of 90% (see SI). We tested the stability of RVG. Less than 5% degradation was observed when RVG was stored in the desiccator under vacuum at r.t. for 2 months, while 95% of Ret-NH2 decomposed under the same condition within 1 week.

[4] = 3.5 μmol per mouse oral, C57BL mice, 16 h

Row | protection against light-induced retinal degeneration (ONL thickness from OCT) ([1]; listed as phenylalanyl) | original drug detected in the eye ([2]; 3.5 μmol per mouse oral) | degradation on storage ([3]; stored in the desiccator under vacuum at r.t. for 2 months) | N-retinylamides in the eye [2, 4] | decomposed on storage ([3]; desiccator under vacuum at r.t., within 1 week) [%] | SMILES | protection against light-induced retinal degeneration (ONL thickness from OCT) [1] | metabolism in the eye ([2]; conclusion from biodistribution at 2 h and 16 h) | average scotopic a wave ERG peak amplitudes ([1]; 0.875 μmol per mouse 16 h prior to light illumination, evaluated 7 days later) | retina structure by histology (H&E) ([1]; treated before intense light exposure, 7 days after light exposure) | liver concentration of N-retinylamides [2, 4]
1 | little protecting efficacy | only detected at 2 h |  |  |  | CC1=C(/C=C/C(C)=C/C=C/C(C)=C/CNC(=O)[C@@H](N)Cc2ccccc2)C(C)(C)CCC1 [RF, (S)-2-amino-N-((2E,4E,6E,8E)-3,7-dimethyl-9-(2,6,6-trimethylcyclohex-1-en-1-yl)nona-2,4,6,8-tetraen-1-yl)-3-phenylpropanamide] | low protecting effect | rapidly metabolized into inactive N-retinylamides in the eye |  |  | 
2 |  | only detected at 16 h | Less than 5% | no detectable N-retinylamides in the eye |  | CC1=C(/C=C/C(C)=C/C=C/C(C)=C/CNC(=O)[C@@H](NC(=O)CN)C(C)C)C(C)(C)CCC1 [RVG, (S)-2-(2-aminoacetamido)-N-((2E,4E,6E,8E)-3,7-dimethyl-9-(2,6,6-trimethylcyclohex-1-en-1-yl)nona-2,4,6,8-tetraen-1-yl)-3-methylbutanamide] | significant improvement on preventing light-induced retinopathy over retinyl amine |  | virtually the same as those without light-illumination (NLI) | maintained intact retina structure; also recorded: protected Abca4^−/−Rdh8^−/− retina from light damage | lower liver concentration of N-retinylamides than RF and RL
3 |  | No free Ret-NH2 was detected in the eye |  |  | 95 | CC1=C(/C=C/C(C)=C/C=C/C(C)=C/CN)C(C)(C)CCC1 [Ret-NH2, (2E,4E,6E,8E)-3,7-dimethyl-9-(2,6,6-trimethylcyclohex-1-en-1-yl)nona-2,4,6,8-tetraen-1-amine] |  |  |  |  | 
